{"source": "patent US20260014180A1", "about": "“BIOACTIVES AND THEIR USES” (AREPA IP LIMITED, priority 2022, published 2026)", "key": {"[1]": {"settings": "in vivo; cited from earlier work"}, "MAO-B in platelets": {"target": "T1, MAO-B in platelets (Homo sapiens, UniProt P27338)", "T1 construct": "host or cells: platelets", "T1 sequence (P27338 1-520)": "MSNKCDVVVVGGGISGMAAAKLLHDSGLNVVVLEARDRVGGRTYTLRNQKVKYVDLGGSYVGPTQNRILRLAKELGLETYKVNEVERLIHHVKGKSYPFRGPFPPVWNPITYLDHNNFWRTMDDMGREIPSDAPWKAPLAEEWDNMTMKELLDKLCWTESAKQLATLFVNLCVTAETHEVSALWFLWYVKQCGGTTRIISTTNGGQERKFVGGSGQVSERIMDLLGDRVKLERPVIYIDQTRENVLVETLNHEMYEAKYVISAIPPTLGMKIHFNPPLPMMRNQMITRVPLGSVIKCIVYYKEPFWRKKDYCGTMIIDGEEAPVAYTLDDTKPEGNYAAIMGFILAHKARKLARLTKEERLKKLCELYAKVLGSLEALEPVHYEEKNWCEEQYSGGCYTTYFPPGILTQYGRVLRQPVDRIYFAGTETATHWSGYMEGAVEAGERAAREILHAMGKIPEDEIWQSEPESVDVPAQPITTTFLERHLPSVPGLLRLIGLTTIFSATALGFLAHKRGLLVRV", "settings": "100 mg dose, cited from earlier work"}, "MAO": {"tested_on": "MAO", "settings": "cited from earlier work"}, "[2]": {"settings": "human, in vivo", "experimental": "Subjective feeling questionnaires and venous blood samples were collected at various timepoints over 8 h. […] Participants and trial coordinators were masked as to which intervention drink participants consumed. Before each trial day, participants excluded foods and supplements high in polyphenol compounds from their diet, for 24 h. They fasted for at least 10 h before consuming an Almond with Vanilla One Square Meal Bar® (Cookie Time Ltd) for breakfast, 2 h before the start of the trial. Participants arrived at the PFR Clinical Facility, where they were made comfortable. After 5 min at rest, they completed visual analogue scale (VAS) subjective feelings questionnaires and then donated a venous blood sample. After which, they were served their intervention beverage and were instructed to consume it as quickly as possible. […]\nThe plasma samples (350 μL) were spiked with malvidin 3-O-galactoside and further acidified with phosphoric acid prior to clean up on a SOLAμ™ Solid Phase Extraction plate. […] Quantifications of individual and total anthocyanins were performed using the internal standard ratio method using MultiQuant software, and all results are reported as cyanidin 3-O-glucoside equivalents. Quantification of sarmentosin was performed using an external reference standard supplied by Stephen Bloor (Callaghan Institute)."}, "MAO-B": {"target": "T2, MAO-B (Sus scrofa, UniProt Q6PLK3)", "T2 sequence (Q6PLK3 2-520)": "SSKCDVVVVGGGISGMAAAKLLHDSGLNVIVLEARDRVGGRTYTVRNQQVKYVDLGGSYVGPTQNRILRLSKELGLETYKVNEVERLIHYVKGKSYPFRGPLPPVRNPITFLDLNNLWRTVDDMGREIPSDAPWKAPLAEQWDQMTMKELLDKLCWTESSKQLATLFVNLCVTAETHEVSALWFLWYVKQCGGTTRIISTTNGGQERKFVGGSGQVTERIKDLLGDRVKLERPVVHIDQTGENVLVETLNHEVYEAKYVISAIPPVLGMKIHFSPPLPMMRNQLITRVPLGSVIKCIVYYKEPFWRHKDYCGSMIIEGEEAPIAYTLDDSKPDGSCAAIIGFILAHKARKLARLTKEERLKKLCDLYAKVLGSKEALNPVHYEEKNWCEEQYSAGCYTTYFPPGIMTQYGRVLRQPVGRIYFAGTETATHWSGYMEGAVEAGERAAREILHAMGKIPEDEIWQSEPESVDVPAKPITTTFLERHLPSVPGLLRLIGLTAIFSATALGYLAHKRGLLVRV", "assay": "S9 liver fraction kynuramine/4HQ LCMS assay, dilution series (Examples 5 and 6)", "assay_type": "biochemical", "settings": "read-out: 50% inhibition concentration (equivalent); porcine S9 fraction, kynuramine, 1 hr 37 C", "protocol": "We used a porcine S9 liver microsome fraction as the source of the MAO-A and MAO-B enzymes.\nThe S9 porcine fraction was mixed with a specific MAO substrate (kynuramine) and mixed with the test sample and buffer. After 1 hr at 37° C. the reaction was halted by cooling and addition of 2N NaOH and acetonitrile. The centrifuged sample was then analysed using LCMS and the level of 4-quinolol (4HQ) product measured.\nThe S9 liver microsome fraction containing the crude enzyme mix was from a frozen bulk sample derived from porcine liver.\nSamples were prepared in a 6-well plate (deep well format with 1.1 ml strip tubes). The assay was performed by diluting the crude S9 fraction with buffer (PBS, PH 7.4, diluted 1 in 5, 150 μl) and adding the test sample dissolved in buffer (75 ul). An aliquot of kynuramine was added (10 μl of 1 mg/ml) and the plate was placed in a 37 C water bath for 1 hr. The plate was cooled in ice water before addition of 20 μl 2N NaOH followed by 250 μl acetonitrile. The individual strip tubes were centrifuged, and samples taken from each for LCMS analysis.\nThe LCMS analysis was performed using a Cyano HPLC column eluted with 0.1% formic in water and acetonitrile. The LC run was isocratic mode (40% Acetonitrile) and the relative levels of 4 hydroxy quinoline (4HQ) and kynuramine determined from peak areas. […] Kynuramine is converted to 4HQ by the MAO-B enzyme. […]"}, "MAO-A": {"target": "T3, MAO-A (Homo sapiens, UniProt P21397)", "T3 construct": "purchased Sigma-Aldrich MAK295/296", "T3 sequence (P21397 1-527)": "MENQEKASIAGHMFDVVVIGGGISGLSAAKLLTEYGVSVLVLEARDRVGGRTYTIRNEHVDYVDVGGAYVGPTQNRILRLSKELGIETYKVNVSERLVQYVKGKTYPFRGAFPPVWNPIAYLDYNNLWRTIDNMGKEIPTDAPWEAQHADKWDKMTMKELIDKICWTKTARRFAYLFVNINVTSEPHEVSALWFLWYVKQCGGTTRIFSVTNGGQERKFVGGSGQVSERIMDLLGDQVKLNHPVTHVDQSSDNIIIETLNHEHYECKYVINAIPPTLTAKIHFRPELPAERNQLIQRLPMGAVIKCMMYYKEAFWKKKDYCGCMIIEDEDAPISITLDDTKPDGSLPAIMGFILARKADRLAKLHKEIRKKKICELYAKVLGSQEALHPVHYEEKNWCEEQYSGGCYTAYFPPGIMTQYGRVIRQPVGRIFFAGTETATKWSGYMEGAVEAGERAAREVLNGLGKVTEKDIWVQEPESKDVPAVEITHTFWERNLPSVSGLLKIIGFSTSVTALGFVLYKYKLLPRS", "settings": "in vivo; cited from earlier work"}}}
{"compound": "O=C(NCCN1CCOCC1)c1ccc(Cl)cc1", "note": "[Moclobemide]", "values": [{"measurement": "elimination half-life", "setting": "[1]", "value": "1 to 3", "unit": "h"}, {"measurement": "time to reach peak (plasma) concentrations", "setting": "[1]", "value": "approximately 1 hours"}]}
{"compound": "NCCNC(=O)c1ccc(Cl)cn1", "note": "[lazabemide]", "values": [{"measurement": "inhibition of MAO-B in platelets", "setting": "MAO-B in platelets; 30 min post dose", "value": "> 90", "unit": "%"}, {"measurement": "time at which maximal inhibition subsides", "setting": "MAO-B in platelets; post dose", "value": 16, "unit": "h"}, {"measurement": "time of full restoration of enzyme activity", "setting": "MAO-B in platelets; post dose", "value": 48, "unit": "h"}]}
{"compound": "O=c1c(O)c(-c2ccc(O)c(O)c2)oc2cc(O)cc(O)c12", "note": "[quercetin]", "values": [{"measurement": "MAO inhibitory activity by HPLC method", "setting": "MAO", "value": "not active"}]}
{"compound": "N#C/C(=C\\CO[C@@H]1O[C@H](CO)[C@@H](O)[C@H](O)[C@H]1O)CO", "note": "[sarmentosin, 4-(beta-D-glucopyranosyloxy)-2-(hydroxymethyl-2-butenenitrile)]", "values": [{"measurement": "time of peak concentrations of sarmentosin in plasma", "setting": "[2]", "value": 120, "unit": "min"}, {"measurement": "IC50", "setting": "MAO-B", "value": "~1.45", "unit": "µM"}]}
{"compound": "Cc1cccc(N2CC(CO)OC2=O)c1", "note": "(stereo not drawn) [toloxatone]", "values": [{"measurement": "duration of MAO-A inhibition", "setting": "MAO-A", "value": "only six hours"}]}
